In patent US8080580B2, “Dioxa-bicyclo[3.2.1]octane-2,3,4-triol derivatives” (Pfizer Inc., priority 2008, dated 2011):
“And” between values parts separate entries of the source, which are not always exact repeats. Equal entries are not always repeated.

Tests used:
[1] = target: T1, human SGLT2 (Homo sapiens, UniProt P31639); assay: SGLT2 functional assay: inhibition of AMG uptake in CHO-FlpIn cells stably expressing human SGLT2; assay type: cell-based; settings: individual runs (Run No.), read-out: hSGLT2 IC50
T1 construct: expressed in transfected cells; host or cells: CHO-FlpIn (Invitrogen)
T1 sequence (P31639 1-672): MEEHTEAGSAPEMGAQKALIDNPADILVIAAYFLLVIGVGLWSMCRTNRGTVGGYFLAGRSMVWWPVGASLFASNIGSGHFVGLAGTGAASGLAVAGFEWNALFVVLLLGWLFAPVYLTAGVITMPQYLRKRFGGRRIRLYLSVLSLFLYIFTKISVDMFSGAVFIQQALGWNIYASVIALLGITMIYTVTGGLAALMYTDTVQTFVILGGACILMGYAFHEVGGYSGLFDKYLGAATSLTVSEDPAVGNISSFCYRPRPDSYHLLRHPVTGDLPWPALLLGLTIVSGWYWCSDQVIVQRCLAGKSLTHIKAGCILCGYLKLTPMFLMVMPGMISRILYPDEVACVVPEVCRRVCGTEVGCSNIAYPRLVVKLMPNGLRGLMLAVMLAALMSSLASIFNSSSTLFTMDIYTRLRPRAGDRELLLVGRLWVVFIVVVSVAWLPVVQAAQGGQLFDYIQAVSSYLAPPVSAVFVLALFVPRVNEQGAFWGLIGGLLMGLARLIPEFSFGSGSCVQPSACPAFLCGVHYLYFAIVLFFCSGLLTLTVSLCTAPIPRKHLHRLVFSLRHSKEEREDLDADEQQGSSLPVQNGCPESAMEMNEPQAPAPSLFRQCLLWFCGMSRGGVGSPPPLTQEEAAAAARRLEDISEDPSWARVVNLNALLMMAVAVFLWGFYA
Description: The SGLT2 functional assay was designed to detect the inhibition of methyl-alpha-D glucopyranoside (AMG—a non-metabolizable form of glucose) uptake via the SGLT2 transporter. The SGLT2 transporter recovers glucose from the proximal tubules of the kidney; its inhibition results in sugar wasted in the urine. The positive control compound, Phlorizin, is a known inhibitor of glucose uptake for SGLT2 and was used for comparing the high percent effect of SGLT2 inhibition of the test compounds.
CHO-FlpIn (Invitrogen, Carlsbad, Calif.) cells stably expressing human SGLT2 (pcDNA5/FRT) were plated in Iso-TC 96 well plates (Perkin Elmer, Waltham, Mass.) at a density of 100,000 cells/well in 100 microL of growth media (1:1 F-12/DMEM media (Gibco, Carlsbad, Calif.), 10% FBS (Sigma, St. Louis Mo.), 1× Pen/Strep (Gibco, Carlsbad, Calif.), 600 microg/mL Hygromycin (Invitrogen, Carlsbad, Calif.)). Prior to treating with test compound, confluent cells were serum starved for 2 hours at 37° C. in 1:1 F-12/DMEM media, replacing with fresh F-12/DMEM media after 1 hour. […] Cell plates were then incubated for 3 hours at 37° C. for AMG uptake.

[2] = Pharmacokinetic testing in rats (IV or PO); assay type: in vivo; settings: rat; for Vd: read-out: Vss
Experimental: Examples 1A, 2A, 4A, 12A, and 14A were tested in rats to assess pharmacokinetic parameters including maximum concentration (Cmax), area under the plasma concentration time curve (AUC), clearance (CL), steady state volume of distribution (Vss), half life (t1/2), and bioavailability (F). Male Sprague Dawley rats (˜300 g) were used. Rats received compound by intravenous (IV) or oral gavage (PO) administration and the doses tested including vehicle to formulate dosing solutions are listed in Table 5.
Following IV or PO administration, 0.2 mL blood was sampled from the jugular vein at various timepoints (Table 5). Twenty microL aliquots of plasma samples and standards were subjected to protein precipitation with acetonitrile containing an internal standard. Samples were vortexed and centrifuged to obtain supernatant which was analyzed by LC-MS/MS. Analyst (Version 1.4.1) was used to measure peak areas and peak area ratios of analyte to internal standard were calculated. LC-MS/MS conditions are as follows: Mass Spectrometer+Source Type was Sciex API 4000−Turbo Spray; HPLC pump was Shimadzu; Autosampler was CTC PAL Autosampler; Injection volume was 3.0 to 10 microL; A gradient was used with mobile phase A: 10 mM ammonium acetate and 1% Isopropyl alcohol in water; B: Acetonitrile; Flowrate 0.300 mL per minute (Column 2.0×30 mm 5 microm LUNA C18 column (phenomenex)). Detection mode was negative.
A calibration curve was constructed from the peak area ratios of the standards to the internal standard by applying a weighted linear (1/x or 1/x2) regression. The dynamic range of the standard curve was 5.00 ng/mL to 5000 ng/mL.
Pharmacokinetic parameters were determined from individual animal data using non-compartmental analysis in Watson (version 7.2). Concentrations below the limit of quantitation (BLQ) were recorded as 0 ng/mL for use in calculations.
The following calculations were used: AUC(0−τ)=Determined using the linear trapezoidal method AUC(0−□)=AUC(0−τ) plus extrapolated area determined by dividing plasma concentration at τ by the slope of the terminal log-linear phase CL=Dose/AUC(0−∞) Vdss=CL×MRT Cmax=Recorded directly from plasma concentration time curve Tmax=Recorded directly from plasma concentration time curve t½=ln(0.5)/slope of the terminal log-linear phase F %=AUC(0−∞)PO per dose/AUC(0−∞)IV per dose C(0)=Extrapolated by linear regression from the apparent distribution phase following IV administration MRT=AUMC(AUC(0−∞)/AUC(0−∞)

[3] = target: T2, hSGLT1 (Homo sapiens, UniProt P13866); assay: SGLT1 functional assay: hSGLT1 IC50 (selectivity counter-screen to the SGLT2 AMG uptake assay); assay type: cell-based; settings: individual runs (Run No.)
T2 sequence (P13866 1-664): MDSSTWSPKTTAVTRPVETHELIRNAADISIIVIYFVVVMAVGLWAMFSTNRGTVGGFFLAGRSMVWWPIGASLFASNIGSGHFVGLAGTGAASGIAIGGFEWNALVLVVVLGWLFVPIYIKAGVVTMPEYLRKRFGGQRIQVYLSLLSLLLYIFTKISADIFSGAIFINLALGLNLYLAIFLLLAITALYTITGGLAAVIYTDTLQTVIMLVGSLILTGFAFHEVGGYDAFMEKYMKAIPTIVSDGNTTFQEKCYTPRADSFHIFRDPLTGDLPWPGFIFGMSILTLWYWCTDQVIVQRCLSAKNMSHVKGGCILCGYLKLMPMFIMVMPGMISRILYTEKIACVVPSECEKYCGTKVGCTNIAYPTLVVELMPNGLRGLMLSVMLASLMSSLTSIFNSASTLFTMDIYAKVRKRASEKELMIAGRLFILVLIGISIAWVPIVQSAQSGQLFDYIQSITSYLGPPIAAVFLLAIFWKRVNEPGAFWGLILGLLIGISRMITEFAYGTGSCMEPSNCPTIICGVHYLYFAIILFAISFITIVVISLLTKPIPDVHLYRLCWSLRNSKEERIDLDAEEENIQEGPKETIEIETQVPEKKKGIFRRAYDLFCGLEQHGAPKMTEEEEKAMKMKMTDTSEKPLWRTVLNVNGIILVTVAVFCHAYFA

[4] = male, Sprague Dawley, plasma, IV, 2 mg/kg
[5] = male, Sprague Dawley, plasma, PO, 10 mg/kg, PEG200/0.5% MC

| IC50 [1] | IC50 [3] | Compound | further results |
| --- | --- | --- | --- |
| 2.28 nM and 3.12 nM and 2.39 nM and 2.87 nM | > 10000 nM | OC[C@@]12CO[C@@](c3ccc(Cl)c(Cc4ccc(OC5COC5)cc4)c3)(O1)[C@H](O)[C@@H](O)[C@@H]2O [Example 14A, (1S,2S,3S,4R,5S)-5-{4-chloro-3-[4-(oxetan-3-yloxy)-benzyl]-phenyl}-1-hydroxymethyl-6,8-dioxa-bicyclo[3.2.1]octane-2,3,4-triol] | AUC(0-inf) [2, 4]: 1060 ng·h/mL; clearance [2, 4]: 31.7 mL/min/kg; half-life [2, 4]: 1.36 h; Vd [2, 4]: 1.69 L/kg; AUC(0-inf) [2, 5]: 2290 ng·h/mL; Cmax [2, 5]: 551 ng/mL; half-life [2, 5]: 1.71 h; F ([2]; PO, 10 mg/kg, PEG200/0.5% MC): 43.5% |
| 14.9 nM and 17.8 nM | > 10000 nM | OC[C@@]12CO[C@@](c3ccc(F)c(Cc4ccc(OC5COC5)cc4)c3)(O1)[C@H](O)[C@@H](O)[C@@H]2O [Example 13A, (1S,2S,3S,4R,5S)-5-{4-fluoro-3-[4-(oxetan-3-yloxy)-benzyl]-phenyl}-1-hydroxymethyl-6,8-dioxa-bicyclo[3.2.1]octane-2,3,4-triol] |  |
| 186 nM | > 10000 nM | COc1ccc(Cc2cc([C@]34OC[C@](CO)(O3)[C@@H](O)[C@H](O)[C@@H]4O)ccc2F)cc1 [Example 5B, (1S,2S,3S,4S,5S)-5-[4-fluoro-3-(4-methoxy-benzyl)-phenyl]-1-hydroxymethyl-6,8-dioxa-bicyclo[3.2.1]octane-2,3,4-triol] |  |
| 0.827 nM and 1.53 nM and 0.942 nM and 0.741 nM and 1.58 nM and 1.05 nM | 1240 nM and > 1000 nM and 679 nM | CCOc1ccc(Cc2cc([C@]34OC[C@](CO)(O3)[C@@H](O)[C@H](O)[C@H]4O)ccc2C)cc1 [Example 2A, (1S,2S,3S,4R,5S)-5-[3-(4-ethoxy-benzyl)-4-methyl-phenyl]-1-hydroxymethyl-6,8-dioxa-bicyclo[3.2.1]octane-2,3,4-triol] | AUC(0-inf) [2, 4]: 1340 ng·h/mL; CL ([2]; IV, 2 mg/kg): 27.7 mL/min/kg; Vss ([2]; IV, 2 mg/kg): 1.03 L/kg; t1/2 ([2]; IV, 2 mg/kg): 0.94 h |
| 127 nM and 103 nM | > 10000 nM | CCOc1ccc(Cc2cc([C@]34OC[C@](CO)(O3)[C@@H](O)[C@H](O)[C@@H]4O)ccc2F)cc1 [Example 10B, (1S,2S,3S,4S,5S)-5-[3-(4-ethoxy-benzyl)-4-fluoro-phenyl]-1-hydroxymethyl-6,8-dioxa-bicyclo[3.2.1]octane-2,3,4-triol] |  |
|  | > 10000 nM and 5780 nM | OC[C@@]12CO[C@@](c3ccc(F)c(Cc4ccc(Cl)cc4)c3)(O1)[C@H](O)[C@@H](O)[C@@H]2O [Example 12A, (1S,2S,3S,4R,5S)-5-[3-(4-chlorobenzyl)-4-fluorophenyl]-1-hydroxymethyl-6,8-dioxabicyclo[3.2.1]octane-2,3,4-triol] | AUC(0-inf) [2, 4]: 2200 ng·h/mL; clearance [2, 4]: 15.9 mL/min/kg; half-life [2, 4]: 3.9 h; Vd [2, 4]: 3.68 L/kg |
| 9.6 nM and 11.9 nM and 19.8 nM and 7.13 nM | > 10000 nM | OC[C@@]12CO[C@@](c3ccc(F)c(Cc4ccc(OC5CCOC5)cc4)c3)(O1)[C@H](O)[C@@H](O)[C@@H]2O (stereo partly drawn) [Example 11A, (1S,2S,3S,4R,5S)-5-{4-fluoro-3-[4-(tetrahydro-furan-3-yloxy)-benzyl]-phenyl}-1-hydroxymethyl-6,8-dioxa-bicyclo[3.2.1]octane-2,3,4-triol] |  |
| 32.3 nM | > 3160 nM | OC[C@@]12CO[C@@](c3ccc(F)c(Cc4ccc(Cl)cc4)c3)(O1)[C@@H](O)[C@@H](O)[C@@H]2O [Example 12B, (1S,2S,3S,4S,5S)-5-[3-(4-chlorobenzyl)-4-fluorophenyl]-1-hydroxymethyl-6,8-dioxabicyclo[3.2.1]octane-2,3,4-triol] |  |
| 18.7 nM and 9.99 nM and 13.5 nM and 13.4 nM and 5.71 nM and 7.67 nM | > 10000 nM and > 1000 nM and 8930 nM | COc1ccc(Cc2cc([C@]34OC[C@](CO)(O3)[C@@H](O)[C@H](O)[C@H]4O)ccc2C#N)cc1 [Example 6A, 2-(4-methoxybenzyl)-4-((1S,2S,3S,4R,5S)-2,3,4-trihydroxy-1-(hydroxymethyl)-6,8-dioxa-bicyclo[3,2,1]oct-5-yl)-benzonitrile] |  |
|  | > 10000 nM | CCOc1ccc(Cc2cc([C@]34OC[C@](CO)(O3)[C@@H](O)[C@H](O)[C@H]4O)ccc2F)cc1 [Example 10A] |  |
|  | > 10000 nM and > 1000 nM and 5790 nM | COc1ccc(Cc2cc([C@]34OC[C@](CO)(O3)[C@@H](O)[C@H](O)[C@H]4O)ccc2F)cc1 [Example 5A, (1S,2S,3S,4R,5S)-5-[4-fluoro-3-(4-methoxy-benzyl)-phenyl]-1-hydroxymethyl-6,8-dioxa-bicyclo[3.2.1]octane-2,3,4-triol] |  |
| 41.6 nM and 40.8 nM and 27.9 nM and 62.2 nM | > 10000 nM | COc1ccc(Cc2cc([C@]34OC[C@](CO)(O3)[C@@H](O)[C@H](O)[C@@H]4O)ccc2Cl)cc1 [Example 3B, (1S,2S,3S,4S,5S)-5-[4-chloro-3-(4-methoxy-benzyl)-phenyl]-1-hydroxymethyl-6,8-dioxa-bicyclo[3.2.1]octane-2,3,4-triol] |  |
| 10.6 nM and 6.38 nM and 5.88 nM and 6.11 nM | > 10000 nM | CCOc1ccc(Cc2cc([C@]34OC[C@](CO)(O3)[C@@H](O)[C@H](O)[C@H]4O)ccc2C#N)cc1 [Example 7A, 2-(4-ethoxybenzyl)-4-((1S,2S,3S,4R,5S)-2,3,4-trihydroxy-1-(hydroxymethyl)-6,8-dioxa-bicyclo[3,2,1]oct-5-yl)-benzonitrile] |  |

| Compound | IC50 [1] | IC50 [3] | further results |
| --- | --- | --- | --- |
| CCOc1ccc(Cc2cc([C@]34OC[C@](CO)(O3)[C@@H](O)[C@H](O)[C@@H]4O)ccc2Cl)cc1 [Example 4B, (1S,2S,3S,4S,5S)-5-[4-chloro-3-(4-ethoxy-benzyl)-phenyl]-1-hydroxymethyl-6,8-dioxa-bicyclo[3.2.1]octane-2,3,4-triol] | 122 nM and 66.8 nM and 81.7 nM | > 10000 nM |  |
